Results: US5506102A (priority 1993, dated 1996)

How the values were obtained:
[1] = biological target: T1, PR-B (Homo sapiens, UniProt P06401); test: PR-B transactivation of PRE2 tk-LUC; type: cell-based; details: CV-1, 10^-7 M progesterone, FIG. 4A
T1 sequence (P06401 1-933): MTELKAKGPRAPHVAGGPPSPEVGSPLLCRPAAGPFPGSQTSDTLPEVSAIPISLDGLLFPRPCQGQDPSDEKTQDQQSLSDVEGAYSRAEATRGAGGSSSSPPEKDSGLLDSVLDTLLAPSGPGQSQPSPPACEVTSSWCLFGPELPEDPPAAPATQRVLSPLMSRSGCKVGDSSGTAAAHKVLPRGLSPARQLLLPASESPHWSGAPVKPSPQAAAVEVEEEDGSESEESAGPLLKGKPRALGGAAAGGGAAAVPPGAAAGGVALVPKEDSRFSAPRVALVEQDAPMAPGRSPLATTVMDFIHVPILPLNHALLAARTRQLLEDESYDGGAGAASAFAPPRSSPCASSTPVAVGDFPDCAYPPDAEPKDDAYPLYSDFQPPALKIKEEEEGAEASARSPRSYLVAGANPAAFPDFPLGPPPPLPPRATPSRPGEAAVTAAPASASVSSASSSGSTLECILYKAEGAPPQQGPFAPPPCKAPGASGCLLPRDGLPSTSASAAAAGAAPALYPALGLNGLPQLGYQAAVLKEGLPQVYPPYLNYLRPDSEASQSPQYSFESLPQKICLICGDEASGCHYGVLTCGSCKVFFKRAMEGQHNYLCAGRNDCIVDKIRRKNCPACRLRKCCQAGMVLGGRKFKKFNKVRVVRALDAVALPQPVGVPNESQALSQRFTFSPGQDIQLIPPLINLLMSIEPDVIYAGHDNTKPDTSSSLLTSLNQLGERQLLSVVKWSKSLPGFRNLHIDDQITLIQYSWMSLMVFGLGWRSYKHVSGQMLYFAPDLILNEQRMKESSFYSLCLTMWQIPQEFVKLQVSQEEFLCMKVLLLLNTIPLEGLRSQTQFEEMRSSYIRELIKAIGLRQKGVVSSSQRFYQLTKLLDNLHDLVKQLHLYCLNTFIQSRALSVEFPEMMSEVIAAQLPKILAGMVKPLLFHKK
Description: (§1) FIGS. 4A-4B are a series of graphs showing CV-1 ([…]) or HepG2 (FIG. 4B) cells that were transiently transfected with either […] of phPR-B or phPR-A alone, or phPR-B in the presence of increasing concentrations of phPR-A, together with 5 µg/ml of the PRE2 tk-LUC reporter and 5 µg/ml of pCH110 as an internal control. HeLa cells (FIG. 4C) were transfected with either phPR-B or phPR-A together with 5 µg/ml of the pTAT2950 reporter and 5 µg/ml of pCH110 as an internal control. […] The relative luciferase activity is calculated by dividing the normalized luciferase value at a given point by that obtained in the absence of transfected receptor or ligand. The data shown represent the mean +/- average deviation from the mean of triplicate estimations;
(§2) Both reporter plasmids were digested with XhoI and HindIII restriction enzymes and a 6.7 Kb fragment from MMTV-LUC and a 0.12 Kb fragment from PRE2 tk-CAT were isolated and ligated, resulting in a plasmid called PRE2 tk-LUC.
(§3) Cells were seeded in 12-well, 96-well or 10 cm tissue culture plates. […] 20 μg of DNA/ml of transfection buffer were used in each transfection reaction. […]

[2] = tested on: PR-B (co-expressed with PR-A587); test: Repression of PR-B mediated MMTV-LUC transcription by DNA binding mutant PR-A587, CV-1 cells; type: cell-based, human; details: equimolar phPR-A587 and phPR-B DNA, 10^-7 M progesterone, FIG. 9
Description: The relative luciferase activity is calculated by dividing the normalized luciferase value at a given point by that obtained in the absence of transfected receptor or ligand.
Cells were seeded in 12-well, 96-well or 10 cm tissue culture plates. […] 20 μg of DNA/ml of transfection buffer were used in each transfection reaction. In this mix, the concentration of the luciferase plasmids and that of the internal control plasmid pCH110 (Pharmacia, Inc.), which contains the gene for the β-galactosidase enzyme, remained constant ([…] of each plasmid DNA), while the receptor plasmid concentration varied as indicated for each experiment. Different amounts of receptor parental plasmid, pSV2-neo (Dr. Bert O'Malley, Baylor College of Medicine, Houston, Tex.) was included to keep constant the total amount of the SV40 enhancer vectors. pGEM4 plasmid DNA (Promega Biotech, Madison, Wis.) was added to balance the total DNA concentration to 20 g/reaction. For the 96-well plate experiments, transfections were performed on a Biomek 1000 Automated Laboratory Workstation (Beckman Instruments, Fullerton, Calif.).
Cells were seeded 24 hours prior to transfection in the fiat-bottom tissue culture plates ([…]) in phenol red-free DMEM containing 10% FCS. […]

[3] = tested on: human progesterone receptor isoform PR-B; test: PR-B transactivation of MMTV-LUC reporter, transient transfection; type: cell-based; details: 10^-7 M progesterone
Description: The cells were then incubated with either progesterone or an inert vehicle (ethanol (ETOH)). Western immunoblot analysis using two PR specific monoclonal antibodies (B30 and AB52, available from Dean Edwards, University of Colorado) confirmed that no hPR-A was synthesized from our PR-B constructs.

[4] = tested on: PR-B (co-expressed with PR-A); test: PR-A effect on PR-B mediated PRE2 tk-LUC transcription (co-transfection); type: cell-based, human
Description: as §1, §2, §3

## CC(=O)[C@H]1CC[C@H]2[C@@H]3CCC4=CC(=O)CC[C@]4(C)[C@H]3CC[C@]12C [progesterone]
[1]
  PR-B transcriptional activity on PRE2 tk-LUC: transcriptionally active
[2]
  reduction of transcriptional activity of PR-B: 90%
[3]; CV-1 cells, PR-B, FIG. 2A
  progesterone mediated activation of the MMTV promoter: permitted progesterone mediated activation of the MMTV promoter
[3]; HepG2 cells, FIG. 2C
  activation of the MMTV promoter by PR-B: both PR-A and PR-B functioned as efficient activators
[4]; CV-1, 10^-7 M progesterone, FIG. 4A
  PR-A effect on PR-B activity on PRE2 tk-LUC: repression of PR-B activity
[4]; HepG2, 10^-7 M progesterone, FIG. 4B
  PR-A effect on PR-B transcriptional activity on PRE2 tk-LUC: no effect on PR-B transcriptional activity
